The nature of data set [1]: Assessment of solubility: HT solubility in pION buffer, UV spectrophotometry. The following applies: for solubility: kinetic from dmso stock.
Data set [2] has as its target T1, Recombinant human soluble guanylate cyclase (sGC), alpha 1 / beta 1 subunits, heme-free (Homo sapiens, UniProt Q02108+Q02153).
T1 construct: histidine tag (C); made in house; host or cells: Sf9 insect cells (baculovirus coinfection)
T1 sequence (Q02108 1-690 partner): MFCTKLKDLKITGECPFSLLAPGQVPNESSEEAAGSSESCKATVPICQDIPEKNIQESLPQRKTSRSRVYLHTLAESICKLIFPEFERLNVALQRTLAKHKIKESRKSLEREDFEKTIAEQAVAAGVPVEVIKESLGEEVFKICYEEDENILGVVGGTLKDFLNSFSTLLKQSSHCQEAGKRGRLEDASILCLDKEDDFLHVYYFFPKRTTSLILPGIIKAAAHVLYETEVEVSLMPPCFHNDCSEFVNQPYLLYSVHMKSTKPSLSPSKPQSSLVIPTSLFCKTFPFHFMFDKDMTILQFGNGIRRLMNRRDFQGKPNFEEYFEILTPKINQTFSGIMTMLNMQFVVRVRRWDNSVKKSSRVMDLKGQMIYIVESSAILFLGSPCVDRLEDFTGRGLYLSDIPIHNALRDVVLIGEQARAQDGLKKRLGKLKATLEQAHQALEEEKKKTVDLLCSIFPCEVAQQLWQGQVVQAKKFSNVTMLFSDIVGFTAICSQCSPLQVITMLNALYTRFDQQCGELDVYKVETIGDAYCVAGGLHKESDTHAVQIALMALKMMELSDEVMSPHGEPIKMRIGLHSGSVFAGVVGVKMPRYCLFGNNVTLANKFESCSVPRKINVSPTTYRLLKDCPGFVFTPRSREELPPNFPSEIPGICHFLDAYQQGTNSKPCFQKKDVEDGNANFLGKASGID
T1 sequence (Q02153 1-619): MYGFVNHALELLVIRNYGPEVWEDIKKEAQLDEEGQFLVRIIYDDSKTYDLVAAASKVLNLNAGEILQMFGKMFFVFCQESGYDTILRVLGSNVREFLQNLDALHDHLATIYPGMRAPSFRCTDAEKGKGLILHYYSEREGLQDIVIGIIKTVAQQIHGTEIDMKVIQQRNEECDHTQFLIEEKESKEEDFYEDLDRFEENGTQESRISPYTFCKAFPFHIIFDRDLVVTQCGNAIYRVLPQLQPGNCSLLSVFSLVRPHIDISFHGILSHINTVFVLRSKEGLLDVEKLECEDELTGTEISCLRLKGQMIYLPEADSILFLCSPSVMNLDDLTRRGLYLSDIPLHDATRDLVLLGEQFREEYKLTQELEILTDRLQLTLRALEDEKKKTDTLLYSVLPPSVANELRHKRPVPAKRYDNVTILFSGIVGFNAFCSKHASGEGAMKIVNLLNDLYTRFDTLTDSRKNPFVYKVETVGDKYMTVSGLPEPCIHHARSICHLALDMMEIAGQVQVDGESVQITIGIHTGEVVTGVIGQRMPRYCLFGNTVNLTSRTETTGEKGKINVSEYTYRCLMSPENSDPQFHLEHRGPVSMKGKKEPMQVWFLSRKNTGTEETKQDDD
In words: Molecular assay: cGMP formation by heme-free recombinant sGC (CisBio cGMP detection kit). The data set is classed as biochemical. The note with it: 300 pM heme-free sGC, 37° C., 60 min, cGMP readout; read-out: EC50 nM, Activity of Compounds in Molecular Assay. How it is done: Recombinant human soluble guanylate cyclase (sGC) is purified from Sf9 insect cells coinfected with baculoviruses expressing the alpha 1 or beta 1 subunit of sGC, both with a C-terminal histidine tag. Heme-free sGC is prepared by treating cell lysate with a final concentration of 0.5% Tween 20 prior to purification on a nickel affinity column.
sGC catalyzes the conversion of guanosine-5′-triphosphate (GTP) to cyclic guanosine monophosphate (cGMP). The activity of sGC is measured in vitro using the commercially available CisBio cGMP detection kit (catalog # 62GM2PEB) in a 384 well format. In brief, 300 pM heme-free sGC is incubated in reaction buffer (50 mM MOPS pH 6.8, 0.2 N KOH, 50 mM NaCl, 2 mM MgCl2, 0.1% BSA, 1.25 mM IBMX, 0.25 mM TCEP, 50 nM GTP) in the presence or absence of dilutions of test compounds diluted in DMSO (final concentration of 1%) in a volume of 10 microL at 37° C. for 60 min. Undiluted reaction products or an 80-fold dilution of reaction products (10 microL of either) prepared in reaction buffer containing 0.2 mM TCEP and 10 mM EDTA is mixed with 5 microL of d2-cGMP plus 5 microL of Eu^3+ cryptate-labeled anti-cGMP, each diluted in buffer containing 0.1 M KPO4 pH 7.5, 0.4 M KF, 20 mM EDTA, 0.2% BSA. After a one h incubation at room temperature in the dark, the mixtures are quantified on an EnVision plate reader (PerkinElmer) according to manufacturer instructions (laser excitation 337 nm, emission 620 and 665 nm). The ratio at each compound concentration is converted to nM cGMP using the linear portion of a calibration curve. Log compound concentration is plotted against combined undiluted and diluted nM cGMP values to determine the EC50 for each curve.

[3] abbreviates: pION system solution buffer, pH 7.4, pH 7.4, aqueous buffer, Solubility (pH 7.4), pH 7.4 buffer, 16-19 h incubation, 1.0% DMSO.
The mark [4] stands for this setting: pION system solution buffer, pH 4.5, pH 4.5, aqueous buffer, Solubility (pH 4.5), pH 4.5 buffer, 16-19 h incubation, 1.0% DMSO.

Structures are written as SMILES. Values after ≈ are worked out from the molar mass of the structure shown. A value given as a limit tells only on which side of the number the result lay.

The record followed here is patent US8815857B2 (Boehringer Ingelheim International GmbH, priority 2011, dated 2014).

As to `Cc1ccc(OCc2ccc(C(=O)N3CCCC3)cc2C)c(-c2csc(N3CCC(C(=O)O)CC3)n2)c1` [Compound 7], in data set [1] (pH 4.5 buffer, 16-19 h incubation, 1.0% DMSO), the “Solubility (pH 4.5)” value is over 62 μg/mL. Besides, the solubility in data set [1] (setting [3]) came to 42 µg/mL (≈ 80.8 µM).
Consider `Cc1cc(CN2CCCCC2)ccc1COc1c(C)cccc1-c1csc(N2CCC(C(=O)O)CC2)n1` [Compound 16], for which the solubility in data set [1] (setting [4]) was over 51 µg/mL; in data set [1] (setting [3]), 33 µg/mL (≈ 63.5 µM).
Taken in the same sequence, the figures for `Cc1ccc(OCc2ccc(CN3CCCCC3)cc2C)c(-c2csc(N3CCC(C(=O)O)CC3)n2)c1` [Compound 18] were over 63 µg/mL and over 63 µg/mL.
For the compound `Cc1ccc(OCc2ccc(CN3CCOCC3)cc2C)c(-c2csc(N3CCC[C@@H](C(=O)O)C3)n2)c1` [Compound 19], the solubility in data set [1] (setting [4]) and in data set [1] (setting [3]) was over 52 µg/mL throughout.
Turning to `COCCN(C)Cc1ccc(COc2ccc(C)cc2-c2csc(N3CCC(C(=O)O)CC3)n2)c(C)c1` [Compound 27], the solubility in data set [1] (setting [4]) and in data set [1] (setting [3]) was over 63 µg/mL in each case.
As for `Cc1cc(CN2CCC(C(N)=O)CC2)ccc1COc1c(C)cccc1-c1csc(N2CCC(C(=O)O)CC2)n1` [Compound 93], the solubility in data set [1] (setting [4]) and in data set [1] (setting [3]) was over 56 µg/mL in each case.
For `Cc1cc(CN2CCS(=O)(=O)CC2)ccc1COc1ccc(C#N)cc1-c1csc(N2CC3C(C2)C3C(=O)O)n1` (stereo not shown) [Compound 116], in data set [2], the EC50 was determined as 1100 nM.
On the same count and under the same terms, the figure for `Cc1cc(CN2CCS(=O)(=O)CC2)ccc1COc1ccccc1-c1csc(N2CC3CCC(C2)C3C(=O)O)n1` (stereo not shown) [Compound 120] is 18 nM; for `Cc1ccc(OCc2ccc(CN3CCS(=O)(=O)CC3)cc2C)c(-c2csc(N3CCC(C(=O)O)CC3C)n2)c1` (stereo not shown) [Compound 124] it is 30 nM.
Regarding `Cc1cc(CN2CCS(=O)(=O)CC2)ccc1COc1ccc(Cl)cc1-c1csc(N2CC3C(C2)C3C(=O)O)n1` (stereo not shown) [Compound 128], the solubility in data set [1] (setting [4]) is 0.45 µg/mL (≈ 0.765 µM); in data set [1] (setting [3]), over 58 µg/mL.
As for `Cc1cc(CN2CCS(=O)(=O)CC2)ccc1COc1ccc(Cl)cc1-c1csc(N2CCC(C(=O)O)C(C)C2)n1` (stereo not shown) [Compound 144], the EC50 in data set [2] is 54 nM.
With `Cc1cc(CN2CCS(=O)(=O)CC2)ccc1COc1ccc(F)cc1-c1csc(N2CCC(C(=O)O)C(C(F)(F)F)C2)n1` (stereo not shown) [Compound 155], the solubility in data set [1] (setting [4]) was 0.3 µg/mL (≈ 0.468 µM); in data set [1] (setting [3]) it was over 63 µg/mL.
For the compound `COCCCNC(=O)c1ccc(COc2ccc(C)cc2-c2csc(N3CCC(C(=O)O)CC3)n2)c(C)c1` [Compound 159], the 50% effective concentration (EC50) in data set [2] was 1900 nM.
Same read-out and setting: with `Cc1ccc(OCc2ccc(C(=O)N(C)CCN(C)C)cc2C)c(-c2csc(N3CCC(C(=O)O)CC3)n2)c1` [Compound 160] the figure was 2800 nM; with `Cc1ccc(OCc2ccc(C(=O)N(C)CC3CCCCC3)cc2C)c(-c2csc(N3CCC(C(=O)O)CC3)n2)c1` [Compound 161], 91 nM; with `COCCCN(C)C(=O)c1ccc(COc2ccc(C)cc2-c2csc(N3CCC(C(=O)O)CC3)n2)c(C)c1` [Compound 162], 71 nM.
Still for that read-out and setting: with `Cc1ccc(OCc2ccc(C(=O)NC3CCCCC3)cc2C)c(-c2csc(N3CCC(C(=O)O)CC3)n2)c1` [Compound 163] the figure was 750 nM; with `Cc1ccc(OCc2ccc(C(=O)N(C)C3CCCCC3)cc2C)c(-c2csc(N3CCC(C(=O)O)CC3)n2)c1` [Compound 164], 55 nM.
With `Cc1cc(CN2CCCCC2)ccc1COc1ccc(C#N)cc1-c1csc(N2CCC(C(=O)O)CC2)n1` [Compound 169], the solubility in data set [1] (setting [4]) and in data set [1] (setting [3]) was over 57 µg/mL in each case.
Regarding `Cc1cc(CN2CCC(O)CC2)ccc1COc1ccc(C#N)cc1-c1csc(N2CCC(C(=O)O)CC2)n1` [Compound 170], the solubility in data set [1] (setting [4]) amounted to 37 µg/mL (≈ 67.7 µM); in data set [1] (setting [3]), 24 µg/mL (≈ 43.9 µM).
Take `Cc1ccc(OCc2ccc(CN3CCC(O)CC3)cc2C)c(-c2csc(N3CCC(C(=O)O)CC3)n2)c1` [Compound 175]: the solubility in data set [1] (setting [4]) and in data set [1] (setting [3]) was over 55 µg/mL in each case.
For the compound `Cc1ccc(OCc2ccc(CN3CCOCC3)cc2C)c(-c2csc(N3CC[C@H](C(=O)O)[C@H](C)C3)n2)c1` [Compound 176], in data set [2], the EC50 was found to be 160 nM.
Consider `Cc1ccc(OCc2ccc(CN3CCOCC3)cc2C)c(-c2csc(N3CCC(C(=O)O)CC3C)n2)c1` (stereo not shown) [Compound 177], for which the concentration giving a half-maximal response (EC50) in data set [2] was 170 nM.
As to `COCCN(C)C(=O)c1ccc(COc2ccc(C)cc2-c2csc(N3CCC(C(=O)O)CC3)n2)c(C#N)c1` [Compound 178], the half-maximal effective concentration (EC50) in data set [2] amounted to 270 nM.
On the same count and under the same terms, the figure for `Cc1cc(C(=O)N2CCCCC2)ccc1COc1ccc(Cl)cc1-c1csc(C2CCC(C(=O)O)CC2)n1` (stereo not shown) [Compound 182] is 1600 nM; for `Cc1cc(C(=O)N2CCCCC2)ccc1COc1ccc(C#N)cc1-c1csc([C@H]2CC[C@H](C(=O)O)CC2)n1` [Compound 183] it is 4400 nM; for `Cc1cc(C(=O)N2CCCCC2)ccc1COc1ccc(C#N)cc1-c1csc(C2=CCC(C(=O)O)CC2)n1` (stereo not shown) [Compound 184] it is 1800 nM.
Same read-out and setting: the figure for `Cc1cc(CN2CCOCC2)ccc1COc1ccccc1-c1csc(N2CCC(C(=O)O)C(C(F)(F)F)C2)n1` (stereo not shown) [Compound 185] is 2700 nM; for `Cc1cc(CN2CCOCC2)ccc1COc1ccc(Cl)cc1-c1csc(N2CC3C(C2)C3C(=O)O)n1` (stereo not shown) [Compound 187] it is 390 nM; for `Cc1cc(CN2CCOCC2)ccc1COc1ccc(Cl)cc1-c1csc(C2=CCC(C(=O)O)CC2)n1` (stereo not shown) [Compound 188] it is 830 nM.
On the same count and under the same terms, the figure for `Cc1cc(CN2CCOCC2)ccc1COc1ccc(C#N)cc1-c1csc(C2=CCC(C(=O)O)CC2)n1` (stereo not shown) [Compound 189] is 9000 nM; for `Cc1cc(CN2CCOCC2)ccc1COc1ccc(F)cc1-c1csc(C2CCC(C(=O)O)CC2)n1` (stereo not shown) [Compound 190] it is 2500 nM; for `Cc1cc(CN2CCOCC2)ccc1COc1ccc(F)cc1-c1csc(C2=CCC(C(=O)O)CC2)n1` (stereo not shown) [Compound 191] it is 530 nM.
Take `Cc1cc(CN2CCOCC2)ccc1COc1ccccc1-c1csc(C2=CCC(C(=O)O)CC2)n1` (stereo not shown) [Compound 193]: in data set [2], the concentration for a half-maximal effect (EC50) came to 2400 nM.
For `Cc1ccc(OCc2ccc(CN3CCOCC3)cc2C)c(-c2csc(N3CCC(C(=O)O)C(C(F)(F)F)C3)n2)c1` (stereo not shown) [Compound 213], the solubility amounted to 32 µg/mL (≈ 54.3 µM) in data set [1] (setting [4]) and 41 µg/mL (≈ 69.5 µM) in data set [1] (setting [3]).
With `CCc1cc(C(=O)N2CCN(C)C(=O)C2)ccc1COc1ccc(C)cc1-c1csc(N2C[C@H]3CC[C@@H](C2)[C@H]3C(=O)O)n1` [Compound 295], the solubility in data set [1] (pH 6.8, aqueous buffer, Solubility (pH 6.8), pH 6.8) came to 60 µg/mL (≈ 99.5 µM); in data set [1] (setting [4]) it was 0.45 µg/mL (≈ 0.747 µM).
